Patent US20110282078A1, “CYCLOHEXENE 1,4 -CARBOXYLATES” (Draths Corporation, priority 2009, published 2011)
Values after ≈ are worked out from the molar mass of the structure shown.

Assay: approximate solubility at room temperature in ethyl acetate
Type: physicochemical
Settings: organic solvent or mixture
Experimental: A stirred suspension of dried (less than 5 weight percent of water), crude cis,cis or cis,trans muconic acid (200 g) in tetrahydrofuran (THF) (1.8 liter (l)) is heated to 50° C., Within 45 minutes at 50° C. most of the solid dissolves. Activated charcoal (35 g) is added. After 1 hour, the hot suspension is clarified by filtration through a bed of Celite™ diatomaceous earth. The filtrate is evaporated to dryness and the residue is dried under high vacuum to yield pure cis,cis or cis,trans muconic acid (166 g, 83 percent mass recovery). In the case of cis,cis muconic acid, any traces of cis,trans muconic acid can be removed by resuspending the solid twice in refluxing ethyl acetate, which is removed each time by decantation from the cooled solution. The approximate solubilities at room temperature in ethyl acetate are 1 mg/ml for cis,cis muconic acid, 5 mg/ml for cis,trans muconic acid, and 0.1 mg/ml for trans,trans muconic acid.

solubility [µg/mL] | SMILES
~5000 (≈ 35.2 mM) | O=C(O)/C=C\C=C\C(=O)O [cis,trans muconic acid]
~1000 (≈ 7.04 mM) | O=C(O)/C=C\C=C/C(=O)O [cis,cis muconic acid]
~100 (≈ 0.704 mM) | O=C(O)/C=C/C=C/C(=O)O [trans,trans muconic acid]
